Measured values published in PMC5845353, “The selective cathepsin K inhibitor MIV-711 attenuates joint pathology in experimental animal models of osteoarthritis” (Journal of Translational Medicine, 2018).
pKi: −log10 of the molar value. “And” between values parts separate entries of the source, which are not always exact repeats. Identical values can stand only once.

Legend:
plasma proteins = test: Fraction bound to plasma proteins, dog; type: in vitro ADME
[1] = tested on: dogs subjected to partial medial meniscectomy; test: Dog partial medial meniscectomy study, microscopic lesion width and depth ratio; type: in vivo
Procedure: Measurements of width of total lesion of any type (chondrocyte death, cloning, fibrillation, proteoglycan loss) were taken across the tibial and femoral surfaces to give a total lesion width. Significant lesion width (matrix loss extending beyond superficial degeneration; i.e., lesions consisting of changes greater than just proteoglycan loss) was also determined in an attempt to convey possible treatment differences based on evaluation of more serious and permanent/irreversible cartilage matrix changes. Multiple depth measurements in areas of greatest lesion severity were taken for each of the 4 quadrants in each of the 3 anterior to posterior sections. These consisted of measurements taken from the surface (or estimated original surface when severe degenerative changes are present) to the point where cartilage appeared normal. A second measurement was taken in this same area to the depth of the tidemark so that the number expressed is a ratio of lesion depth vs. depth of tidemark. The mean values for each quadrant (medial to lateral) for the 3 anterior to posterior sections were determined as well as an overall mean for the joint. In this measurement, the minor changes consisting of proteoglycan loss only are not measured and only lesions with definite chondrocyte loss and sometimes fibrillation are included. This parameter should reflect a similar result to the significant width measurement as it is an indicator of beneficial effects on the more severe pathology.

cathepsin K from human = target: cathepsin K from human; parameters: method as in PMID 29743078; conditions: read-out: Ki against cathepsin K from human; cited from earlier work
[2] = tested on: dogs subjected to partial medial meniscectomy; test: Dog partial medial meniscectomy study, tibial cartilage lesion area by imaging analysis of photographs; type: in vivo; conditions: 30 µmol/kg
Procedure: Dogs subjected to partial medial meniscectomy received either 30 µmol/kg MIV-711 (synthesized by Medivir and given as a suspension in 1% Methocel A4C; n = 15) or vehicle (1% Methocel A4C; n = 15) by orogastric gavage once daily in the morning. […] Dosing started the day before surgery and lasted through Day 28, the day before necropsy. Each dog was fasted for at least 12 h before dosing and food were returned approximately 4 h following test article administration.
All animals were humanely euthanized on Day 29 to collect specimens for pathology. Following sedation with acepromazine, euthanasia was performed via injection of a pentobarbital-based euthanasia solution (≥ 88 mg/kg pentobarbital). At study termination, the left (operated) knee was opened, disarticulated and the lesions on the medial tibia and femur measured, described and photographed. The observers were blinded to the treatment. Photographs were used (with or without India Ink lesion enhancement) to determine % area of lesions on each medial tibial plateau. Lesions were classified as more severe or less severe depending on the intensity of India ink staining or perception of depth and areas for each calculated. Gross cartilage lesions were measured (length × width) and described as superficial, moderate, or deep. Gross subjective cartilage degeneration scores were assigned for the medial and lateral tibial and femoral compartments as follows based on lesion measurements (see above): 0: normal, 1: superficial degeneration up to 10 mm^2, 2: superficial degeneration greater than 10 mm^2, 3: moderate depth degeneration up to 15 mm^2, 4: moderate depth degeneration greater than 15 mm^2. Subjective scores for the various regions were then used to generate an overall index of subjective cartilage degeneration for each region for each animal. Actual measurements of cartilage lesions were used to derive a calculated set of data points based on length × width × depth score (with depth score of 1 = superficial, 2 = medium, and 3 = deep, based on gross description). Percent of more or less severe tibial lesion area was determined from photographs taken at necropsy.

[3] = Synovial fluid concentrations of MIV-711 in dogs; type: in vivo; conditions: dog
Procedure: Synovial fluid was collected from as many dogs as possible immediately before surgery and then again during necropsy from both operated and contralateral knees. The fluid was sampled directly without lavage using a syringe. The synovial fluid was transferred into tubes containing EDTA. The samples were spun in a centrifuge, and the supernatant was collected and stored at − 70 °C until analysis.
To measure MIV-711 concentrations, 10–50 µL of plasma or synovial fluid was mixed with 30–150 µL of acetonitrile, samples were centrifuged (10 min, 20,000g, 7 °C) and 5 µL of the supernatant was injected onto the LC–MS/MS system. The lower limit of quantification (LLOQ) was 1 nmol/L.

[4] = dog, individual animals of MIV-711 group
[5] = dog, mean of zones, individual animals of MIV-711 group
[6] = dog, mean of zones, versus Vehicle
[7] = individual dogs of MIV-711 group, mean of the 4 quadrants
[8] = individual dogs of MIV-711 group, width of any cartilage lesion, mean of 3 sections
[9] = individual dogs of MIV-711 group, width of degeneration with score of 1 or greater

C#C[C@@H]1CN(C(=O)[C@H](CC(C)C)NC(=O)c2ccc(-c3nc(N4CCN(C)CC4)sc3F)cc2)[C@@H]2C(=O)CO[C@H]12 [MIV-711]
fraction bound to plasma proteins (plasma proteins): 90%
Femur Cartilage Degeneration Width Sig ([1]; MIV-711 group mean): 994.3 µm
Femur Cartilage Degeneration Width Total ([1]; MIV-711 group mean): 3661.0 µm
Femur Mean DRAMC (Depth Ratio Any Matrix Change) ([1]; MIV-711 group mean): 0.084
Tibia Cartilage Degeneration Width Sig ([1]; MIV-711 group mean): 2105.6 µm
Tibia Cartilage Degeneration Width Total ([1]; MIV-711 group mean): 7336.0 µm
Tibia Mean DRAMC (Depth Ratio Any Matrix Change) ([1]; MIV-711 group mean): 0.13
% inhibition, Femur Cartilage Degeneration Width Sig ([1]; MIV-711 group vs vehicle): 11%
% inhibition, Femur Cartilage Degeneration Width Total ([1]; MIV-711 group vs vehicle): 13%
% inhibition, Femur Mean DRAMC ([1]; MIV-711 group vs vehicle): -9%
% inhibition, Tibia Cartilage Degeneration Width Sig ([1]; MIV-711 group vs vehicle): 5%
% inhibition, Tibia Cartilage Degeneration Width Total ([1]; MIV-711 group vs vehicle): 0%
% inhibition, Tibia Mean DRAMC ([1]; MIV-711 group vs vehicle): 17%
Femur Depth Ratio Any Matrix Change Zone 1 ([1]; dog, group Mean): 0.15
Femur Depth Ratio Any Matrix Change Zone 2 ([1]; dog, group Mean): 0.13
Femur Depth Ratio Any Matrix Change Zone 3 ([1]; dog, group Mean): 0.05
Femur Depth Ratio Any Matrix Change Zone 4 ([1]; dog, group Mean): 0.01
Tibia Depth Ratio Any Matrix Change Zone 1 ([1]; dog, group Mean): 0.05
Tibia Depth Ratio Any Matrix Change Zone 2 ([1]; dog, group Mean): 0.31
Tibia Depth Ratio Any Matrix Change Zone 3 ([1]; dog, group Mean): 0.11
Tibia Depth Ratio Any Matrix Change Zone 4 ([1]; dog, group Mean): 0.04
Femur Depth Ratio Any Matrix Change Zone 1 [1, 4]: 0.08 and 0.07 and 0.01 and 0.42 and 0.19 and 0.10 and 0.09 and 0.22 and 0.50 and 0.06 and 0.23
Femur Depth Ratio Any Matrix Change Zone 2 [1, 4]: 0.13 and 0.16 and 0.00 and 0.36 and 0.08 and 0.10 and 0.01 and 0.06 and 0.09 and 0.48 and 0.05 and 0.24
Femur Depth Ratio Any Matrix Change Zone 3 [1, 4]: 0.04 and 0.03 and 0.00 and 0.33 and 0.01 and 0.02 and 0.21
Femur Depth Ratio Any Matrix Change Zone 4 [1, 4]: 0.00 and 0.01 and 0.02 and 0.06
Tibia Depth Ratio Any Matrix Change Zone 1 [1, 4]: 0.06 and 0.08 and 0.01 and 0.09 and 0.03 and 0.13 and 0.00 and 0.15 and 0.11
Tibia Depth Ratio Any Matrix Change Zone 2 [1, 4]: 0.28 and 0.23 and 0.35 and 0.24 and 0.27 and 0.36 and 0.39 and 0.22 and 0.47 and 0.33 and 0.30 and 0.19
Tibia Depth Ratio Any Matrix Change Zone 3 [1, 4]: 0.14 and 0.11 and 0.18 and 0.08 and 0.15 and 0.07 and 0.24 and 0.06 and 0.04 and 0.19 and 0.03 and 0.05
Tibia Depth Ratio Any Matrix Change Zone 4 [1, 4]: 0.05 and 0.04 and 0.00 and 0.07 and 0.06 and 0.01 and 0.03 and 0.02
Femur Depth Ratio Any Matrix Change Mean ([1]; dog, mean of zones, group Mean): 0.08
Tibia Depth Ratio Any Matrix Change Mean ([1]; dog, mean of zones, group Mean): 0.13
Femur Depth Ratio Any Matrix Change Mean [1, 5]: 0.06 and 0.07 and 0.00 and 0.28 and 0.04 and 0.03 and 0.01 and 0.08 and 0.31 and 0.12
Tibia Depth Ratio Any Matrix Change Mean [1, 5]: 0.13 and 0.11 and 0.17 and 0.09 and 0.15 and 0.16 and 0.07 and 0.14 and 0.20
% inhibition, Femur Depth Ratio Any Matrix Change Mean [1, 6]: -9%
% inhibition, Tibia Depth Ratio Any Matrix Change Mean [1, 6]: 17%
% inhibition, Femur Depth Ratio Any Matrix Change Zone 1 ([1]; dog, versus Vehicle): -39%
% inhibition, Femur Depth Ratio Any Matrix Change Zone 2 ([1]; dog, versus Vehicle): 10%
% inhibition, Femur Depth Ratio Any Matrix Change Zone 3 ([1]; dog, versus Vehicle): -12%
% inhibition, Femur Depth Ratio Any Matrix Change Zone 4 ([1]; dog, versus Vehicle): 44%
% inhibition, Tibia Depth Ratio Any Matrix Change Zone 1 ([1]; dog, versus Vehicle): 55%
% inhibition, Tibia Depth Ratio Any Matrix Change Zone 2 ([1]; dog, versus Vehicle): -2%
% inhibition, Tibia Depth Ratio Any Matrix Change Zone 3 ([1]; dog, versus Vehicle): 23%
% inhibition, Tibia Depth Ratio Any Matrix Change Zone 4 ([1]; dog, versus Vehicle): 19%
Femur Mean DRAMC (Depth Ratio Any Matrix Change) [1, 7]: 0.04 and 0.06 and 0.07 and 0.00 and 0.28 and 0.03 and 0.01 and 0.08 and 0.31 and 0.12
Tibia Mean DRAMC (Depth Ratio Any Matrix Change) [1, 7]: 0.07 and 0.13 and 0.11 and 0.17 and 0.09 and 0.15 and 0.16 and 0.14 and 0.20
Femur Cartilage Degeneration Width Total [1, 8]: 3885 µm and 4200 µm and 4410 µm and 630 µm and 5040 µm and 3780 µm and 2310 µm and 3990 µm and 5880 µm and 2730 µm and 3675 µm
Tibia Cartilage Degeneration Width Total [1, 8]: 6405 µm and 6510 µm and 8190 µm and 7560 µm and 8400 µm and 7980 µm and 6195 µm and 6930 µm and 6615 µm and 7245 µm and 7770 µm
Femur Cartilage Degeneration Width Sig [1, 9]: 0 µm and 735 µm and 1260 µm and 3465 µm and 200 µm and 968 µm and 420 µm and 1890 µm and 733 µm and 815 µm and 3360 µm and 1068 µm
Tibia Cartilage Degeneration Width Sig [1, 9]: 1638 µm and 1890 µm and 2310 µm and 1470 µm and 2520 µm and 2205 µm and 1155 µm and 3150 µm and 1575 µm and 1218 µm and 2163 µm and 4515 µm and 1785 µm
pKi (cathepsin K from human): 9.01
Total lesion area, reduction vs vehicle (printed in Fig. 7) ([2]; dog, left tibia plateau): 26%
proportion of tibial cartilage affected by lesions (lesioned area) ([2]; dog, left tibia plateau, vehicle 21.0% ± 2.6): 15.5%
area of severe lesions, lower than vehicle group ([2]; dog, p = 0.08): 80%
dogs with severe tibial cartilage lesions ([2]; dog, vehicle 6/15): 3/15
area of severe tibial cartilage lesions ([2]; three dogs with severe lesions, vehicle 10 ± 4%): 2 ± 1%
MIV-711 levels in synovial fluid ([3]; 24 h after first dose and 24 h after last dose of 30 µmol/kg): low but measurable
MIV-711 levels in synovial fluid, injured left knee compared to right knee ([3]; at sacrifice, 24 h after last dose of 30 µmol/kg): fivefold higher
